The structures appear in SMILES notation.

In experiment [1] the target is BCLXL (Homo sapiens, UniProt Q07817, V10N/V9A). As to the kind of experiment: Fluorescence polarisation assay (PUMA-based probe displacement). Note: 20 nM protein, 10 nM fluorescent probe. The experiment is classed as binding. In general terms: Polarisation of emitted light reports the rotation of a fluorescent probe.
Experiment [2] deals with MOLT-4 cells. The experiment is described as follows: MOLT-4 cell viability, MTT assay. Particulars: Homo sapiens, MOLT-4, 48 h, 48 h exposure. The experiment is classed as cell-based. The gist of the method: (§1)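 Cells grown in RPMI 1640 with 10% heat-inactivated FBS at 37° C, 5% CO2, exposed 48 h to nine 3.16-fold serial compound dilutions in triplicate. MTT added for 4 h, SDS/HCl solubilisation overnight, absorbance at 540 nm; IC50 by four-parameter fit.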
Background: Formazan colour is commonly taken as a measure of viable cells.

For experiment [3], the system named is H146 cells. As to the kind of experiment: H146 cell viability, MTT assay. Type of experiment: cell-based. Particulars: Homo sapiens, NCI-H146, 48 h, 48 h exposure. An outline of the steps: as §1

Sequence of BCLXL (Q07817 with tags, fused parts or gaps V9A/V10N): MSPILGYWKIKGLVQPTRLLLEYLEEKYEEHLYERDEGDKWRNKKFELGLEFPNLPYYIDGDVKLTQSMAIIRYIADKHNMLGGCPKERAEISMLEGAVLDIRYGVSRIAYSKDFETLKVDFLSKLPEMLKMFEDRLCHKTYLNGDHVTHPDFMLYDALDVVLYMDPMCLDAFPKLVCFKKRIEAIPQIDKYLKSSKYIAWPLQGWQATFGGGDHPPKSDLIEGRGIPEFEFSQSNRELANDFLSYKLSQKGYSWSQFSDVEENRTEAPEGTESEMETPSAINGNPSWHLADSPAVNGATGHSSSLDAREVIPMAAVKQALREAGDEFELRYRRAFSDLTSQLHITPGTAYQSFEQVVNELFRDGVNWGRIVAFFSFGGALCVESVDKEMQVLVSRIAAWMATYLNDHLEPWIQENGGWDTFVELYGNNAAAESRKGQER

As to `COCCCN(c1cc(C)c(Nc2nc3ccccc3s2)nn1)c1nc(C(=O)O)c(CCCOC2CCCCC2)s1` [Example 66, 2-({6-[(1,3-Benzothiazol-2-yl)amino]-5-methylpyridazin-3-yl}(3-methoxypropyl)amino)-5-[3-(cyclohexyloxy)propyl]-1,3-thiazole-4-carboxylic acid], the Ki in experiment [1] turned out to be 1.9 nM. The IC50 in experiment [2] is 527 nM; in experiment [3], 1160 nM.

With `COCCCN(c1cc(C)c(Nc2nc3ccccc3s2)nn1)c1nc(C(=O)O)c(CCCOc2ccccc2F)s1` [Example 67, 2-({6-[(1,3-Benzothiazol-2-yl)amino]-5-methylpyridazin-3-yl}(3-methoxypropyl)amino)-5-[3-(2-fluorophenoxy)propyl]-1,3-thiazole-4-carboxylic acid], the Ki in experiment [1] is under 1 nM. Besides, the figures for the IC50 in experiment [2] and in experiment [3] were 754 nM and 710 nM, respectively.

As for `Cc1cc(N(C)c2nc(C(=O)O)c(N3CC(OCc4ccccc4)C3)s2)nnc1Nc1nc2ccccc2s1` [Example 68, 2-({6-[(1,3-Benzothiazol-2-yl)amino]-5-methylpyridazin-3-yl}(methyl)amino)-5-[3-(benzyloxy)azetidin-1-yl]-1,3-thiazole-4-carboxylic acid], the Ki in experiment [1] was found to be 5.7 nM. Moreover, the IC50 in experiment [2] stood at 279 nM; in experiment [3], 2600 nM.

With `Cc1cc(N(C)c2nc(C(=O)O)c(N3CC(Oc4ccccc4)C3)s2)nnc1Nc1nc2ccccc2s1` [Example 69, 2-({6-[(1,3-Benzothiazol-2-yl)amino]-5-methylpyridazin-3-yl}(methyl)amino)-5-(3-phenoxyazetidin-1-yl)-1,3-thiazole-4-carboxylic acid], in experiment [1], the Ki worked out at 4.2 nM. Besides, the IC50 was 446 nM in experiment [2] and 686 nM in experiment [3].

Turning to `Cc1cc(N(C)c2nc(C(=O)O)c(N3CC[C@H](OCc4ccccc4)C3)s2)nnc1Nc1nc2ccccc2s1` [Example 70, 2-({6-[(1,3-Benzothiazol-2-yl)amino]-5-methylpyridazin-3-yl}(methyl)amino)-5-[(3S)-3-(benzyloxy)pyrrolidin-1-yl]-1,3-thiazole-4-carboxylic acid], the Ki in experiment [1] came out at 30 nM. The IC50 in experiment [2] is over 41600 nM; in experiment [3], over 15000 nM.

As for `Cc1cc(N(C)c2nc(C(=O)O)c(N3CC[C@@H](OCc4ccccc4)C3)s2)nnc1Nc1nc2ccccc2s1` [Example 71, 2-({6-[(1,3-Benzothiazol-2-yl)amino]-5-methylpyridazin-3-yl}(methyl)amino)-5-[(3R)-3-(benzyloxy)pyrrolidin-1-yl]-1,3-thiazole-4-carboxylic acid], in experiment [1], the Ki was over 10000 nM. Besides, the IC50 in experiment [2] and in experiment [3] was over 15000 nM each time.

Turning to `Cc1cc(N(C)c2nc(C(=O)O)c(N3CCC(OCc4ccccc4)CC3)s2)nnc1Nc1nc2ccccc2s1` [Example 75, 2-({6-[(1,3-Benzothiazol-2-yl)amino]-5-methylpyridazin-3-yl}(methyl)amino)-5-[4-(benzyloxy)piperidin-1-yl]-1,3-thiazole-4-carboxylic acid], the Ki in experiment [1] is under 1 nM. Moreover, the half-maximal inhibitory concentration (IC50) in experiment [2] was 2920 nM; in experiment [3] it was over 15000 nM.

As to `Cc1cc(N(C)c2nc(C(=O)O)c(N3CC[C@H](Oc4ccccc4)C3)s2)nnc1Nc1nc2ccccc2s1` [Example 77, 2-({6-[(1,3-Benzothiazol-2-yl)amino]-5-methylpyridazin-3-yl}(methyl)amino)-5-[(3S)-3-phenoxypyrrolidin-1-yl]-1,3-thiazole-4-carboxylic acid], the Ki in experiment [1] was 110 nM. The IC50 in experiment [2] was 6590 nM; in experiment [3], at least 14900 nM.

Consider `Cc1cc(N(C)c2nc(C(=O)O)c(C3CCC3)s2)nnc1Nc1nc2ccccc2s1` [Example 78, 2-({6-[(1,3-Benzothiazol-2-yl)amino]-5-methylpyridazin-3-yl}(methyl)amino)-5-cyclobutyl-1,3-thiazole-4-carboxylic acid], for which, in experiment [1], the Ki was 110 nM. Also, the IC50 in experiment [2] and in experiment [3] was over 15000 nM in each case.

Broadly, the Ki is the equilibrium dissociation constant of an inhibitor or competing ligand from its target. What is called IC50 is the concentration that inhibits the measured activity by half. Read a low IC50 as inhibition by little substance.

The values are drawn from patent US12649733B2, “3,6-diamino-pyridazin-3-yl derivatives, pharmaceutical compositions containing them and their uses as pro-apoptotic agents” (LES LABORATOIRES SERVIER, priority 2019, dated 2026).
